Measurements from patent US5459126A, “Method for decreasing calcium uptake by cells using selected polycations” (California Institute of Technology, priority 1993, dated 1995).
Entries after “also recorded” stand apart in the source; their conditions may differ.

How the values were obtained:
Type in all cases: cell-based
[1] = system: neonatal rat cardiomyocytes; assay: 45Ca uptake by metabolically inhibited cardiomyocytes (iodoacetic acid + 2-deoxyglucose); conditions: for inhibition of calcium uptake: iodoacetic acid and 2-deoxyglucose
Experimental: (§1) Ca fluxes were measured by an on-line isotopic technique (13). The myocytes were cultured onto scintillant-containing discs which were mounted in a flow cell so that the cells were in direct contact with perfusate. The flow cell was placed between two opposing […] tubes. Cell-associated Ca was then recorded in counts per minute. ^45 Ca^2+ is a low energy beta-emitter. The radioactivity contained within the perfusate is counted with very low efficiency (<5%) whereas that within the cells is counted with an efficiency of 39%. In all of the examples the cells were initially perfused with non isotopic solution to remove any debris. Perfusion with ^45 Ca^2+ containing solution was then commenced at 10 ml/minute and continued until the cells were labelled to asymptote. This normally took 25-30 minutes. The flow cell was then drained and refilled with a solution containing hydrogen peroxide. The cells were then incubated for 60 minutes with continuous recording of ^45 Ca labeling (no flow) prior to washout with non-isotopic perfusate.
(§2) At the end of each experiment the discs were removed from the flow cell, allowed to dry and the cells were scraped onto a pre-weighed piece of filter paper. This was placed in an oven (>100° C.) overnight and then weighed, permitting determination of the cellular dry weight. The specific activity of each isotopic solution was measured in a […] (Beckman Instruments) and cell-associated Ca was expressed in mmoles/kg dry cellular weight. The cell cultures were maintained at 37° C.
Exposure of neonatal rat cardiomycytes to 0.05 mM iodoacetic acid (IAA), as a glycolytic inhibitor, and 0.5 mM 2-deoxyglucose (2-DOG), as a non-metabolizable substrate, produces a graded depletion in intracellular ATP and induces a significant Ca leak. In the following example involving metabolic inhibition, these two compounds were included in the incubation medium. 2-DOG was added directly and IAA was added from a 1 M stock solution, dissolved in water. The concentration in the culture media was 0.5 mM for 2-DOG and 0.05 mM for IAA.

mammalian cells = assay: calcium uptake inhibition in cell culture, noxious stimulus not specified
[2] = system: neonatal rat cardiomyocytes; assay: 45Ca uptake by cultured cardiomyocytes exposed to hydrogen peroxide (free radical attack), on-line isotopic technique
Experimental: Protamine is a strong polycationic polypeptide used extensively for heparin reversal after cardiopulmonary bypass. The drug is known to be negatively inotropic. The neonatal rat cardiomyocytes were cultured according to the procedure described by Frank et al.(13).
as §1, with “This normally took 25-30 minutes.” left out
After asymptotic labeling with ^45 Ca, the cells were perfused with a solution containing protamine sulfate at varying concentrations. […] The flow cell was then drained and refilled with a solution containing 50 μM H2 O2 and protamine. The procedure was repeated with protamine in varying concentrations: 1 μM (n=4); 5 μM (n=6) and 50 μM (n=6).
as §2

[3] = calcium leak caused by metabolic inhibition
[4] = calcium leak caused by hydrogen peroxide

CCCCCCCCCCCC[N+](C)(C)C.[Br-] [DDTMA, dodecyltrimethylammonium bromide]
inhibition of calcium uptake ([1]; 50 μM): significant inhibition of calcium uptake

Gentamicin
amount required to obtain any significant level of calcium uptake inhibition (mammalian cells): 1.5 mM

hexamedronium bromide [Polybrene]
inhibition of calcium leak [1, 3]: inhibited the calcium leak | threshold concentration above which inhibition was significant [1, 3]: 25 µM | effect on calcium uptake ([1]; polybrene 25 μM, metabolically inhibited cells (FIG. 5)): prevention of calcium uptake | inhibition of calcium leak [2, 4]: inhibited the calcium leak | threshold concentration above which inhibition was significant [2, 4]: 25 µM | effect on calcium uptake ([2]; polybrene 25 μM, free radical attack (FIG. 4)): prevention of calcium uptake

polymyxin B sulfate [PXB]
inhibition of calcium uptake ([1]; 100 μM): substantially inhibited

protamine
effect on calcium uptake ([1]; concentrations below 5 μM, 0.05 mM IAA + 0.5 mM 2-DOG): did not exert a significant effect | effect on calcium uptake ([1]; concentrations of 5 μM and higher, 0.05 mM IAA + 0.5 mM 2-DOG): prevention of calcium uptake; also recorded: dramatic drop in calcium uptake | effect on calcium overload (mammalian cells; cell culture concentrations of 5 μM and above): completely prevent calcium overload | effect on Ca overload ([2]; protamine 1 μM, 50 μM H2O2, 60 min incubation): no effect | effect on Ca overload / calcium uptake ([2]; protamine 5 μM, 50 μM H2O2, 60 min incubation): prevention of calcium uptake; also recorded: completely prevented the Ca overload | effect on Ca overload ([2]; protamine concentration above 5 μM (50 μM tested), 50 μM H2O2): no additional effect | effect of protamine on Ca overload after neutralizing its positive charge with heparin ([2]; protamine plus heparin, H2O2): completely inhibited | Ca uptake on perfusion with the agent alone ([2]; protamine sulfate at varying concentrations, after asymptotic 45Ca labeling, before H2O2): did not significantly alter Ca uptake
